Assays:
[1] = tested on: NBsusSR; test: cells; assay type: functional, cell-based; details: Homo sapiens;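 also: growth inhibition of the human cell line, read out with a cell viability assay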
Description: SANGER: Inhibition of human NBsusSR cell growth in a cell viability assay.

[2] = tested on: VMRC-RCZ; test: cells; assay type: functional, cell-based; details: Homo sapiens
Description: SANGER: Inhibition of human VMRC-RCZ cell growth in a cell viability assay.

[3] = tested on: HMV-2 cell line; test: cells; assay type: functional, cell-based; details: Homo sapiens;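 also: growth inhibition of HMV-II cells, read out with a cell viability assay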
Description: SANGER: Inhibition of human HMV-II cell growth in a cell viability assay.

[4] = tested on: HSC-3; test: cells; assay type: functional, cell-based; details: Homo sapiens
Description: SANGER: Inhibition of human HSC-3 cell growth in a cell viability assay.

[5] = tested on: NCI-H460; test: cells; assay type: functional, cell-based; details: Homo sapiens;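 also: cell viability assay scoring growth inhibition of human NCI-H460 cells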
Description: SANGER: Inhibition of human NCI-H460 cell growth in a cell viability assay.

[6] = tested on: SK-MEL3; test: cells; assay type: functional, cell-based, SK-MEL-3; details: Homo sapiens;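 also: growth inhibition of human SK-MEL-3 cells, read out with a cell viability assay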
Description: SANGER: Inhibition of human SK-MEL-3 cell growth in a cell viability assay.

[7] = tested on: ZR-75-30; test: cells; assay type: functional, cell-based; details: Homo sapiens;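 also: growth inhibition of ZR-75-30 cells, measured with a cell viability readout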
Description: SANGER: Inhibition of human ZR-75-30 cell growth in a cell viability assay.

[8] = tested on: D-423MG; test: cells; assay type: functional, cell-based; details: Homo sapiens
Description: SANGER: Inhibition of human D-423MG cell growth in a cell viability assay.

[9] = tested on: KYSE-270; test: cells; assay type: functional, cell-based; details: Homo sapiens;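 also: cell growth inhibition measured with a viability assay in the human KYSE-270 line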
Description: SANGER: Inhibition of human KYSE-270 cell growth in a cell viability assay.

[10] = tested on: HT-1376; test: cells; assay type: functional, cell-based; details: Homo sapiens
Description: SANGER: Inhibition of human HT-1376 cell growth in a cell viability assay.

[11] = tested on: OVCAR-8; test: cells; assay type: functional, cell-based; details: Homo sapiens;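 also: growth inhibition of human OVCAR-8 cells, read out by a cell viability assay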
Description: SANGER: Inhibition of human OVCAR-8 cell growth in a cell viability assay.

[12] = tested on: NB14; test: cells; assay type: functional, cell-based, Homo sapiens; details: Homo sapiens, NB14;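 also: growth inhibition of NB14 cells measured with a cell viability assay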
Description: SANGER: Inhibition of human NB14 cell growth in a cell viability assay.

[13] = tested on: SK-MES-1; test: cells; assay type: functional, cell-based; details: Homo sapiens;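 also: growth inhibition of human SK-MES-1 cells, read out with a cell viability assay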
Description: SANGER: Inhibition of human SK-MES-1 cell growth in a cell viability assay.

[14] = tested on: TGBC11TKB; test: cells; assay type: functional, cell-based; details: Homo sapiens;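 also: growth inhibition of human TGBC11TKB cells, measured by a cell viability assay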
Description: SANGER: Inhibition of human TGBC11TKB cell growth in a cell viability assay.

[15] = tested on: H-EMC-SS; test: cells; assay type: functional, cell-based; details: Homo sapiens
Description: SANGER: Inhibition of human H-EMC-SS cell growth in a cell viability assay.

[16] = tested on: JEG-3; test: cells; assay type: functional, cell-based; details: Homo sapiens;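 also: growth inhibition of human JEG-3 cells, read out with a cell viability assay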
Description: SANGER: Inhibition of human JEG-3 cell growth in a cell viability assay.

[17] = tested on: NCI-H520; test: cells; assay type: functional, cell-based; details: Homo sapiens;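 also: growth inhibition of NCI-H520 cells, measured by a cell viability assay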
Description: SANGER: Inhibition of human NCI-H520 cell growth in a cell viability assay.

[18] = tested on: HT-3; test: cells; assay type: functional, cell-based; details: Homo sapiens;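 also: growth inhibition measured with a cell viability readout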
Description: SANGER: Inhibition of human HT-3 cell growth in a cell viability assay.

[19] = tested on: BHY; test: cells; assay type: functional, cell-based; details: Homo sapiens;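 also: cell growth inhibition read out by a viability assay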
Description: SANGER: Inhibition of human BHY cell growth in a cell viability assay.

[20] = tested on: C32; test: cells; assay type: functional, cell-based; details: Homo sapiens;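 also: cell viability assay, with IC50 reflecting inhibition of C32 cell growth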
Description: SANGER: Inhibition of human C32 cell growth in a cell viability assay.

[21] = tested on: H4; test: cells; assay type: functional, cell-based; details: Homo sapiens
Description: SANGER: Inhibition of human H4 cell growth in a cell viability assay.

[22] = tested on: OC-314; test: cells; assay type: functional, cell-based; details: Homo sapiens
Description: SANGER: Inhibition of human OC-314 cell growth in a cell viability assay.

[23] = tested on: ECC10; test: cells; assay type: functional, cell-based; details: Homo sapiens;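 also: growth inhibition of ECC10 cells, read out by a cell viability assay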
Description: SANGER: Inhibition of human ECC10 cell growth in a cell viability assay.

[24] = tested on: BCPAP; test: cells; assay type: functional, cell-based; details: Homo sapiens;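 also: growth inhibition of BCPAP cells, read out in a cell viability assay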
Description: SANGER: Inhibition of human BCPAP cell growth in a cell viability assay.

[25] = tested on: CAL-33; test: cells; assay type: functional, cell-based; details: Homo sapiens;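 also: growth inhibition of CAL-33 cells, read out with a cell viability assay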
Description: SANGER: Inhibition of human CAL-33 cell growth in a cell viability assay.

[26] = tested on: NCI-H358; test: cells; assay type: functional, cell-based; details: Homo sapiens;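 also: growth inhibition of NCI-H358 human cells, read out with a cell viability assay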
Description: SANGER: Inhibition of human NCI-H358 cell growth in a cell viability assay.

[27] = tested on: NCI-H2228; test: cells; assay type: functional, cell-based; details: Homo sapiens;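 also: growth inhibition of human NCI-H2228 cells, read out by a cell viability assay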
Description: SANGER: Inhibition of human NCI-H2228 cell growth in a cell viability assay.

[28] = tested on: SK-LU-1; test: cells; assay type: functional, cell-based; details: Homo sapiens;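 also: cell viability assay measuring growth inhibition of human SK-LU-1 cells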
Description: SANGER: Inhibition of human SK-LU-1 cell growth in a cell viability assay.

[29] = tested on: MIA PaCa-2; test: cells; assay type: functional, cell-based; details: Homo sapiens;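 also: growth inhibition of MIA PaCa-2 cells, read out with a cell viability assay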
Description: SANGER: Inhibition of human MIA-PaCa-2 cell growth in a cell viability assay.

[30] = tested on: HPAF-II; test: cells; assay type: functional, cell-based; details: Homo sapiens;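 also: growth inhibition of HPAF-II cells, read out with a cell viability assay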
Description: SANGER: Inhibition of human HPAF-II cell growth in a cell viability assay.

[31] = tested on: RCM-1; test: cells; assay type: functional, cell-based; details: Homo sapiens;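 also: growth inhibition of the RCM-1 line, determined with a cell viability readout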
Description: SANGER: Inhibition of human RCM-1 cell growth in a cell viability assay.

[32] = tested on: PANC-08-13; test: cells; assay type: functional, cell-based; details: Homo sapiens
Description: SANGER: Inhibition of human PANC-08-13 cell growth in a cell viability assay.

[33] = tested on: CAPAN-1; test: cells; assay type: functional, cell-based; details: Homo sapiens;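 also: growth suppression of CAPAN-1 cells, read out by a cell viability assay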
Description: SANGER: Inhibition of human CAPAN-1 cell growth in a cell viability assay.

[34] = tested on: GCT; test: cells; assay type: functional, cell-based; details: Homo sapiens;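 also: GCT cell line proliferation inhibition, read out with a cell viability assay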
Description: SANGER: Inhibition of human GCT cell growth in a cell viability assay.

[35] = tested on: SW1573; test: cells; assay type: functional, cell-based; details: Homo sapiens;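 also: growth inhibition of SW1573 cells, read out with a cell viability assay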
Description: SANGER: Inhibition of human SW1573 cell growth in a cell viability assay.

[36] = tested on: MG-63; test: cells; assay type: functional, cell-based; details: Homo sapiens;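 also: growth inhibition of human MG-63 cells, read out with a cell viability assay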
Description: SANGER: Inhibition of human MG-63 cell growth in a cell viability assay.

[37] = tested on: CHP-212; test: cells; assay type: functional, cell-based; details: Homo sapiens
Description: SANGER: Inhibition of human CHP-212 cell growth in a cell viability assay.

[38] = tested on: KNS-62; test: cells; assay type: functional, cell-based; details: Homo sapiens;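 also: inhibition of cell growth, read out with a cell viability assay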
Description: SANGER: Inhibition of human KNS-62 cell growth in a cell viability assay.

[39] = tested on: BT-549; test: cells; assay type: functional, cell-based; details: Homo sapiens
Description: SANGER: Inhibition of human BT-549 cell growth in a cell viability assay.

[40] = tested on: SK-OV-3; test: cells; assay type: functional, cell-based; details: Homo sapiens;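 also: growth inhibition of SK-OV-3 human cells, read out with a cell viability assay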
Description: SANGER: Inhibition of human SK-OV-3 cell growth in a cell viability assay.

[41] = tested on: 647-V; test: cells; assay type: functional, cell-based; details: Homo sapiens;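 also: growth inhibition of 647-V cells, read out with a cell viability assay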
Description: SANGER: Inhibition of human 647-V cell growth in a cell viability assay.

[42] = tested on: Daoy; test: cells; assay type: functional, cell-based; details: Homo sapiens;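 also: daoy cell growth inhibition, read out as cell viability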
Description: SANGER: Inhibition of human Daoy cell growth in a cell viability assay.

[43] = tested on: NCI-H292; test: cells; assay type: functional, cell-based; details: Homo sapiens;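 also: growth inhibition of NCI-H292 cells, read out with a cell viability assay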
Description: SANGER: Inhibition of human NCI-H292 cell growth in a cell viability assay.

[44] = tested on: NCI-H719; test: cells; assay type: functional, cell-based, Homo sapiens; details: Homo sapiens, NCI-H719;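 also: growth inhibition of the cultured cell line, read out with a viability assay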
Description: SANGER: Inhibition of human NCI-H719 cell growth in a cell viability assay.

[45] = tested on: NCI-H1436; test: cells; assay type: functional, cell-based, Homo sapiens; details: Homo sapiens, NCI-H1436;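 also: growth suppression of human NCI-H1436 cells, determined with a cell viability readout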
Description: SANGER: Inhibition of human NCI-H1436 cell growth in a cell viability assay.

[46] = tested on: CHP-126; test: cells; assay type: functional, cell-based, Homo sapiens; details: Homo sapiens, CHP-126
Description: SANGER: Inhibition of human CHP-126 cell growth in a cell viability assay.

[47] = tested on: EW-12; test: SANGER: Inhibition of human EW-12 cell growth in a cell viability assay.; assay type: functional, cell-based; details: Homo sapiens, EW-12
[48] = tested on: PF-382; test: cells; assay type: functional, cell-based, Homo sapiens; details: Homo sapiens, PF-382
Description: SANGER: Inhibition of human PF-382 cell growth in a cell viability assay.

[49] = tested on: HC-1; test: cells; assay type: functional, cell-based, Homo sapiens; details: Homo sapiens, HC-1;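 also: growth inhibition of HC-1 cells measured by a cell viability assay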
Description: SANGER: Inhibition of human HC-1 cell growth in a cell viability assay.

[50] = tested on: BC1 cell line; test: SANGER: Inhibition of human BC-1 cell growth in a cell viability assay.; assay type: functional, cell-based; details: Homo sapiens, BC1

CC1(C)CCC(c2ccc(Cl)cc2)=C(CN2CCN(c3ccc(C(=O)NS(=O)(=O)c4ccc(N[C@H](CCN5CCOCC5)CSc5ccccc5)c(S(=O)(=O)C(F)(F)F)c4)cc3)CC2)C1 [NAVITOCLAX]
IC50 [1]: > 2000 nM | IC50 [2]: > 2000 nM | IC50 [3]: > 2000 nM | IC50 [4]: 1960 nM | IC50 [5]: > 2000 nM | IC50 [6]: > 2000 nM | IC50 [7]: > 2000 nM | IC50 [8]: > 2000 nM | IC50 [9]: > 2000 nM | IC50 [10]: > 2000 nM | IC50 [11]: > 2000 nM | IC50 [12]: 1140 nM | IC50 [13]: > 2000 nM | IC50 [14]: > 2000 nM | IC50 [15]: > 2000 nM | IC50 [16]: > 2000 nM | IC50 [17]: > 2000 nM | IC50 [18]: > 2000 nM | IC50 [19]: > 2000 nM | IC50 [20]: 1190 nM | IC50 [21]: > 2000 nM | IC50 [22]: > 2000 nM | IC50 [23]: 37.9 nM | IC50 [24]: > 2000 nM | IC50 [25]: > 2000 nM | IC50 [26]: > 2000 nM | IC50 [27]: > 2000 nM | IC50 [28]: > 2000 nM | IC50 [29]: > 2000 nM | IC50 [30]: 926 nM | IC50 [31]: > 2000 nM | IC50 [32]: > 2000 nM | IC50 [33]: > 2000 nM | IC50 [34]: > 2000 nM | IC50 [35]: > 2000 nM | IC50 [36]: > 2000 nM | IC50 [37]: > 2000 nM | IC50 [38]: > 2000 nM | IC50 [39]: > 2000 nM | IC50 [40]: > 2000 nM | IC50 [41]: > 2000 nM | IC50 [42]: > 2000 nM | IC50 [43]: > 2000 nM

COc1cc(N2CCC(N3CCN(C)CC3)CC2)ccc1Nc1ncc(Cl)c(Nc2ccccc2S(=O)(=O)C(C)C)n1 [TAE-684]
IC50 [44]: > 2000 nM | IC50 [12]: 438 nM | IC50 [45]: > 2000 nM | IC50 [46]: 860 nM | IC50 [47]: > 2000 nM | IC50 [48]: 1570 nM | IC50 [49]: > 2000 nM | IC50 [50]: > 2000 nM

CN(C)CCOc1ccc(-c2nc(-c3ccncc3)c(-c3ccc4c(c3)CC/C4=N\O)[nH]2)cc1 [SB590885]
IC50 [1]: > 5000 nM | IC50 [2]: > 5000 nM | IC50 [4]: > 5000 nM | IC50 [5]: > 5000 nM | IC50 [6]: 818 nM | IC50 [7]: > 5000 nM | IC50 [8]: > 5000 nM | IC50 [9]: > 5000 nM | IC50 [10]: > 5000 nM | IC50 [11]: > 5000 nM | IC50 [12]: > 5000 nM | IC50 [13]: > 5000 nM | IC50 [14]: > 5000 nM | IC50 [15]: 351 nM | IC50 [16]: > 5000 nM | IC50 [17]: > 5000 nM | IC50 [18]: > 5000 nM | IC50 [19]: > 5000 nM | IC50 [20]: 99.6 nM | IC50 [21]: > 5000 nM | IC50 [22]: > 5000 nM | IC50 [23]: > 5000 nM | IC50 [24]: > 5000 nM | IC50 [25]: > 5000 nM | IC50 [27]: > 5000 nM | IC50 [28]: > 5000 nM | IC50 [29]: > 5000 nM | IC50 [30]: > 5000 nM | IC50 [31]: > 5000 nM | IC50 [32]: > 5000 nM | IC50 [33]: > 5000 nM | IC50 [34]: > 5000 nM | IC50 [35]: > 5000 nM | IC50 [36]: > 5000 nM | IC50 [37]: > 5000 nM | IC50 [38]: > 5000 nM | IC50 [39]: > 5000 nM | IC50 [40]: > 5000 nM | IC50 [41]: > 5000 nM | IC50 [42]: > 5000 nM | IC50 [43]: 4380 nM

CS(=O)(=O)N1CCN(Cc2cc3nc(-c4cccc5[nH]ncc45)nc(N4CCOCC4)c3s2)CC1 [PICTILISIB]
IC50 [1]: 489 nM | IC50 [2]: > 4000 nM | IC50 [4]: 840 nM | IC50 [5]: > 4000 nM | IC50 [6]: > 4000 nM | IC50 [7]: > 4000 nM | IC50 [8]: 1100 nM | IC50 [9]: 1300 nM | IC50 [10]: > 4000 nM | IC50 [11]: > 4000 nM | IC50 [12]: > 4000 nM | IC50 [13]: 2010 nM | IC50 [14]: > 4000 nM | IC50 [15]: > 4000 nM | IC50 [16]: > 4000 nM | IC50 [17]: 1090 nM | IC50 [18]: 2490 nM | IC50 [19]: 3260 nM | IC50 [20]: 3420 nM | IC50 [21]: 851 nM | IC50 [22]: > 4000 nM | IC50 [24]: > 4000 nM | IC50 [25]: > 4000 nM | IC50 [26]: > 4000 nM | IC50 [27]: 1850 nM | IC50 [28]: 2450 nM | IC50 [29]: > 4000 nM | IC50 [30]: 3100 nM | IC50 [31]: > 4000 nM | IC50 [32]: > 4000 nM | IC50 [33]: > 4000 nM | IC50 [34]: > 4000 nM | IC50 [35]: 3750 nM | IC50 [36]: 541 nM | IC50 [37]: 2180 nM | IC50 [38]: 3920 nM | IC50 [39]: > 4000 nM | IC50 [40]: > 4000 nM | IC50 [41]: > 4000 nM | IC50 [42]: > 4000 nM | IC50 [43]: 974 nM

From ChEMBL document CHEMBL1201861, “Genomics of Drug Sensitity in Cancer screening data, Wellcome Trust Sanger Institute”
